For data set [1] the following is noted: reported in WO2010/083414; cited from earlier work.
A short description of data set [2]: Aqueous solubility measurement. The format is physicochemical. The conditions noted are these: thermodynamic from solid; deionized water, shaking ca. 24 h, ambient temperature (ca. 22° C.). How it is done:
Each salt was individually slurried in deionized water and subjected to shaking for ca. 24 h at ambient temperature (ca. 22° C.). The resulting saturated solutions were filtered and analyzed by HPLC analysis. XRPD analysis was carried out on any solid retained after the solubility experiment.

Data set [3] is described as follows: Dynamic vapour sorption (DVS), water absorption. The settings on record: between 20% and 70% RH. The format is physicochemical.
Protocol: Approximately 10-20 mg of sample was placed into a vapour sorption balance pan and loaded into a DVS-1 dynamic vapour sorption balance by Surface Measurement Systems. The sample was subjected to a ramping profile from 20-90% relative humidity (RH) at 10% increments, maintaining the sample at each step until a stable weight had been achieved (99.5% step completion). After completion of the sorption cycle, the sample was dried using the same procedure, but all the way down to 0% RH and finally taken back to the starting point of 20% RH. The weight change during the sorption/desorption cycles were plotted, allowing for the hygroscopic nature of the sample to be determined.
A short description of data set [4]: Karl Fischer coulometric titration (water content). The data set is classed as physicochemical. How it is done:
Ca. 10-20 mg of solid material was accurately weighed into a container and the weight noted. The solid was then manually introduced into the titration cell of a Mettler Toledo C30 Compact Titrator. The titration was initiated once the sample had fully dissolved in the cell. The vial was back-weighed after the addition of the solid and the weight of the added solid entered into the instrument. The water content was calculated automatically by the instrument as a percentage and the data printed.

For data set [5] the following is noted: humidity (75%) and high temperature (40° C.); reported in WO2010/083414; cited from earlier work.

The structures appear in SMILES notation. Structures can show the parent of a compound that is named as a salt.

Results on four compounds are retold here after patent US10053427B2, “Crystalline forms of cabozantinib phosphate and cabozantinib hydrochloride” (priority 2015, dated 2018).

Turning to `COc1cc2nccc(Oc3ccc(NC(=O)C4(C(=O)Nc5ccc(F)cc5)CC4)cc3)c2cc1OC` [(L)-malate salt], in data set [1], the Hygroscopicity result is on record as “non-hygroscopic”.

As usually defined, the solubility is the dissolved amount per volume that the medium holds. High values mean a readily soluble substance, low ones a poorly soluble substance. For the compound `COc1cc2nccc(Oc3ccc(NC(=O)C4(C(=O)Nc5ccc(F)cc5)CC4)cc3)c2cc1OC.Cl` [Cabozantinib hydrochloride Form A-1, N-{4-[(6,7-dimethoxy-4-quinolinyl)oxy]phenyl}-N′-(4-fluorophenyl)-1,1-cyclopropanedicarboxamide hydrochloride], in data set [2], the solubility at 24 h was found to be 210 µg/mL. For the same compound, the “Water absorption (DVS)” value in data set [3] (DVS) is 0.07 weight-%. Moreover, the “Hygroscopicity (DVS)” value in data set [3] was “non hygroscopic”.

For `COc1cc2nccc(Oc3ccc(NC(=O)C4(C(=O)Nc5ccc(F)cc5)CC4)cc3)c2cc1OC.O=P(O)(O)O` [Cabozantinib phosphate Form A, N-{4-[(6,7-dimethoxy-4-quinolinyl)oxy]phenyl}-N′-(4-fluorophenyl)-1,1-cyclopropanedicarboxamide phosphate], in data set [4], the “KF analysis water content” value is on record as 0.5 weight-%. This compound came in with a solubility at 24 h in data set [2] of 90 µg/mL. The compound further displayed a Water absorption in data set [3] (DVS) of 1%.

Take `COc1cc2nccc(Oc3ccc(NC(=O)C4(C(=O)Nc5ccc(F)cc5)CC4)cc3)c2cc1OC` [cabozantinib hydrochloride salt]: in data set [5], the “Physical stability (hydrate formation / phase change)” value is “Possible hydrate formation and a phase change”.
